Measurements taken from patent US12077503B2, “Substituted cyclic amides and their use as herbicides” (FMC CORPORATION, priority 2015, dated 2024).

Legend:
Format in all cases: in vivo
[1] = tested on: ragweed (common ragweed, Ambrosia elatior); experiment: Test A postemergence; conditions: postemergence, 0 to 100 scale (0 no effect, 100 complete control)
Outline: (§1)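 Ratings of 0 (no effect) to 100 (complete control) come from visual comparison with untreated controls roughly 10 d after treatment. Test chemicals, formulated in a non-phytotoxic solvent mixture with surfactant, were applied either as a preemergence directed soil spray on seeded soil or postemergence to one- to two-leaf plants 2 to 10 cm tall.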

[2] = tested on: ryegrass, Italian (Italian ryegrass, Lolium multiflorum); experiment: Test A postemergence; conditions: postemergence, 0 to 100 scale (0 no effect, 100 complete control)
Outline: as §1

[3] = tested on: barnyardgrass (Echinochloa crus-galli); experiment: Test A postemergence
Outline: as §1

[4] = tested on: blackgrass (Alopecurus myosuroides); experiment: Test A postemergence
Outline: as §1

[5] = tested on: giant foxtail (Setaria faberii); experiment: Test A postemergence; conditions: postemergence, 0 to 100 scale (0 no effect, 100 complete control)
Outline: as §1

[6] = tested on: pigweed (Amaranthus retroflexus); experiment: Test A postemergence; conditions: postemergence, 0 to 100 scale (0 no effect, 100 complete control)
Outline: as §1

[7] = tested on: Kochia (Kochia scoparia); experiment: Test A postemergence; conditions: postemergence, 0 to 100 scale (0 no effect, 100 complete control)
Outline: as §1

[8] = tested on: wheat (Triticum aestivum); experiment: Test A postemergence; conditions: postemergence, 0 to 100 scale (0 no effect, 100 complete control)
Outline: as §1

[9] = tested on: Galium (catchweed bedstraw, Galium aparine); experiment: Test A postemergence; conditions: postemergence, 0 to 100 scale (0 no effect, 100 complete control)
Outline: as §1

[10] = tested on: corn (Zea mays); experiment: Test A postemergence
Outline: as §1

[11] = tested on: ragweed (common ragweed, Ambrosia elatior); experiment: Test A preemergence
Outline: as §1

[12] = tested on: ryegrass, Italian (Italian ryegrass, Lolium multiflorum); experiment: Test A preemergence
Outline: as §1

[13] = tested on: barnyardgrass (Echinochloa crus-galli); experiment: Test A preemergence
Outline: as §1

[14] = tested on: giant foxtail (Setaria faberii); experiment: Test A preemergence
Outline: as §1

[15] = tested on: pigweed (Amaranthus retroflexus); experiment: Test A preemergence
[16] = tested on: Kochia (Kochia scoparia); experiment: Test A preemergence
Outline: as §1

[17] = tested on: barnyardgrass (Echinochloa crus-galli); experiment: Test B flooded paddy test; conditions: Flood, 250 g ai/ha; 0 to 100 scale where 0 is no effect and 100 is complete control; 13 to 15 d
Outline: (§2)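 Percent control, visually estimated after 13–15 d in the greenhouse on a 0–100 basis, compares treated pots with untreated ones; compound was put into paddy water 3 cm above the soil when plants had two leaves.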

[18] = tested on: sedge, umbrella (small-flower umbrella sedge, Cyperus difformis); experiment: Test B flooded paddy test; conditions: Flood, 250 g ai/ha; 0 to 100 scale where 0 is no effect and 100 is complete control; 13 to 15 d
Outline: as §2

[19] = tested on: ducksalad (Heteranthera limosa); experiment: Test B flooded paddy test; conditions: Flood, 250 g ai/ha; 0 to 100 scale where 0 is no effect and 100 is complete control; 13 to 15 d
Outline: as §2

[20] = tested on: rice (Oryra sativa); experiment: Test B flooded paddy test; conditions: Flood, 250 g ai/ha; 0 to 100 scale where 0 is no effect and 100 is complete control; 13 to 15 d
Outline: as §2

[21] = 125 g ai/ha, visual rating after approx. 10 d
[22] = 500 g ai/ha, visual injury, approx. 10 d
[23] = 125 g ai/ha, postemergence, visual rating after approx. 10 d, 0 to 100 scale (0 no effect, 100 complete control)
[24] = Postemergence, 500 g ai/ha, 0 to 100 scale where 0 is no effect and 100 is complete control
[25] = 125 g ai/ha, Preemergence, visual injury after approximately 10 d, 0 to 100 scale where 0 is no effect and 100 is complete control
[26] = 500 g ai/ha, preemergence, 0 to 100 scale, 0 = no effect, 100 = complete control
[27] = 500 g ai/ha, postemergence, visual injury, 0 to 100 scale (0 no effect, 100 complete control), approx. 10 d

SMILES | Plant response rating, Ragweed [1, 21] | Plant response rating, Ragweed [1, 22] | Plant response rating, Ryegrass, Italian [2, 21] | Plant response rating, Ryegrass, Italian [2, 22] | Plant response rating, Barnyardgrass [3, 23] | Plant response rating, Blackgrass [4, 23] | Plant response rating, Foxtail, Giant [5, 21] | Plant response rating, Foxtail, Giant [5, 22] | Plant response rating, Pigweed [6, 21] | Plant response rating, Pigweed [6, 22] | Plant response rating, Kochia [7, 21] | Plant response rating, Kochia [7, 22] | Plant response rating, Wheat [8, 21] | Plant response rating, Wheat [8, 22] | Plant response rating, Galium [9, 21] | Plant response rating, Galium [9, 22] | Plant response rating, Corn [10, 23] | Plant response rating, Ragweed [11, 25] | Plant response rating, Ragweed [11, 26] | Plant response rating, Ryegrass, Italian [12, 25] | further results
C=CCOc1cccc(C2CNC(=O)C2(CC=C)C(=O)Nc2cccc(F)c2F)c1 (stereo not drawn) [Compound 631] | 0 | 0 | 0 | 0 | 0 | 0 | 0 | 0 | 0 | 0 | 0 | 0 | 0 | 0 | 0 | 0 | 0 | 0 | 0 | 0 | Plant response rating, Barnyardgrass [3, 24]: 0; Plant response rating, Blackgrass [4, 24]: 0; Plant response rating, Corn [10, 24]: 0; Plant response rating, Ryegrass, Italian [12, 26]: 0; Plant response rating, Barnyardgrass [13, 25]: 0; Plant response rating, Barnyardgrass [13, 26]: 0; Plant response rating, Foxtail, Giant [14, 25]: 0; Plant response rating, Foxtail, Giant [14, 26]: 0; Plant response rating, Pigweed [15, 25]: 0; Plant response rating, Pigweed [15, 26]: 0; Plant response rating, Kochia [16, 25]: 0; Plant response rating, Kochia [16, 26]: 0; Plant response rating, Barnyardgrass [17]: 0; Plant response rating, Sedge, Umbrella [18]: 0; Plant response rating, Ducksalad [19]: 0; Plant response rating, Rice [20]: 0
CN1CC(c2cccc(F)c2)C(C(=O)Nc2cccc(F)c2F)C1=O (stereo not drawn) [Compound 632] | 20 | 30 | 30 | 50 | 90 | 50 | 90 | 90 | 0 | 40 | 60 | 60 | 30 | 60 | 50 | 50 | 20 | 60 | 70 | 60 | Plant response rating, Barnyardgrass [3, 24]: 90; Plant response rating, Blackgrass [4, 24]: 60; Plant response rating, Corn [10, 24]: 80; Plant response rating, Ryegrass, Italian [12, 26]: 70; Plant response rating, Barnyardgrass [13, 25]: 90; Plant response rating, Barnyardgrass [13, 26]: 90; Plant response rating, Foxtail, Giant [14, 25]: 90; Plant response rating, Foxtail, Giant [14, 26]: 90; Plant response rating, Pigweed [15, 25]: 0; Plant response rating, Pigweed [15, 26]: 70; Plant response rating, Kochia [16, 25]: 50; Plant response rating, Kochia [16, 26]: 70; Plant response rating, Barnyardgrass [17]: 80; Plant response rating, Sedge, Umbrella [18]: 50; Plant response rating, Ducksalad [19]: 100; Plant response rating, Rice [20]: 30
CN1CC(c2cc(F)cc(F)c2)C(C(=O)Nc2cccc3c2CCCC3)C1=O (stereo not drawn) [Compound 660] | 0 | 0 | 0 | 0 | 50 | 0 | 80 | 90 | 0 | 0 | 0 | 0 | 0 | 0 | 0 | 0 | 0 | 0 | 0 | 0 | Plant response rating, Barnyardgrass [3, 27]: 80; Plant response rating, Blackgrass [4, 27]: 40; Plant response rating, Corn [10, 27]: 0; Plant response rating, Ryegrass, Italian [12, 26]: 20; Plant response rating, Barnyardgrass [13, 25]: 60; Plant response rating, Barnyardgrass [13, 26]: 90; Plant response rating, Foxtail, Giant [14, 25]: 80; Plant response rating, Foxtail, Giant [14, 26]: 90; Plant response rating, Pigweed [15, 25]: 0; Plant response rating, Pigweed [15, 26]: 0; Plant response rating, Kochia [16, 25]: 0; Plant response rating, Kochia [16, 26]: 0; Plant response rating, Barnyardgrass [17]: 45; Plant response rating, Sedge, Umbrella [18]: 0; Plant response rating, Ducksalad [19]: 60; Plant response rating, Rice [20]: 15
Cc1cccc(C2CN(C)C(=O)C2C(=O)Nc2ccccc2S(C)(=O)=O)c1 (stereo not drawn) [Compound 668] | 0 | 0 | 0 | 70 | 90 | 60 | 90 | 90 | 0 | 0 | 20 | 20 | 20 | 60 | 20 | 70 | 20 | 0 | 40 | 0 | Plant response rating, Barnyardgrass [3, 27]: 90; Plant response rating, Blackgrass [4, 27]: 70; Plant response rating, Corn [10, 27]: 80; Plant response rating, Ryegrass, Italian [12, 26]: 0; Plant response rating, Barnyardgrass [13, 25]: 90; Plant response rating, Barnyardgrass [13, 26]: 90; Plant response rating, Foxtail, Giant [14, 25]: 90; Plant response rating, Foxtail, Giant [14, 26]: 100; Plant response rating, Pigweed [15, 25]: 20; Plant response rating, Pigweed [15, 26]: 50; Plant response rating, Kochia [16, 25]: 20; Plant response rating, Kochia [16, 26]: 70; Plant response rating, Barnyardgrass [17]: 70; Plant response rating, Sedge, Umbrella [18]: 0; Plant response rating, Ducksalad [19]: 98; Plant response rating, Rice [20]: 0
